According to PubChem BioAssay AID330 (DTP/NCI, 2004):
Values joined by “and” are separate entries in the source; they are usually repeats but may differ in a detail not shown here. Identical values can stand only once. Toxic doses and inconclusive results are not listed.

System: P388 leukemia ip, CD2F1 mice, survival T/C
Assay: NCI In Vivo Anticancer Drug Screen. Data for tumor model P388 Leukemia (intraperitoneal) in CD2F1 (CDF1) mice
Conditions: endpoint: median survival time, higher = longer survival
In short: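 Mice carrying the transplanted tumor received test compound or vehicle. Survival was recorded in each group, and the value is the treated-group measurement divided by that of the vehicle-treated control group.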

[1] = dose: 100.0 mg/kg/injection, schedule: Q04DX002 (ip), vehicle: Klucel (hydroxypropylcellulose) (HPC)
[2] = dose: 200.0 mg/kg/injection, schedule: Q04DX002 (ip), vehicle: Klucel (hydroxypropylcellulose) (HPC)
[3] = dose: 50.0 mg/kg/injection, schedule: Q01DX009 (ip), vehicle: saline with Tween-80
[4] = dose: 100.0 mg/kg/injection, schedule: Q01DX009 (ip), vehicle: saline with Tween-80
[5] = dose: 100.0 mg/kg/injection, schedule: Q04DX003 (ip), vehicle: saline with Tween-80
[6] = dose: 200.0 mg/kg/injection, schedule: Q04DX003 (ip), vehicle: saline with Tween-80
[7] = dose: 400.0 mg/kg/injection, schedule: Q04DX003 (ip), vehicle: saline with Tween-80
[8] = dose: 50.0 mg/kg/injection, schedule: Q01DX005 (ip), vehicle: Klucel (hydroxypropylcellulose) (HPC)
[9] = dose: 100.0 mg/kg/injection, schedule: Q01DX005 (ip), vehicle: Klucel (hydroxypropylcellulose) (HPC)
[10] = dose: 200.0 mg/kg/injection, schedule: Q01DX005 (ip), vehicle: Klucel (hydroxypropylcellulose) (HPC)
[11] = dose: 200.0 mg/kg/injection, schedule: Q01DX009 (ip), vehicle: saline with Tween-80
[12] = dose: 60.0 mg/kg/injection, schedule: Q01DX005 (ip), vehicle: saline with Tween-80
[13] = dose: 120.0 mg/kg/injection, schedule: Q01DX005 (ip), vehicle: saline with Tween-80
[14] = dose: 50.0 mg/kg/injection, schedule: Q01DX009 (ip), vehicle: Klucel (hydroxypropylcellulose) (HPC)
[15] = dose: 100.0 mg/kg/injection, schedule: Q01DX009 (ip), vehicle: Klucel (hydroxypropylcellulose) (HPC)
[16] = dose: 200.0 mg/kg/injection, schedule: Q01DX009 (ip), vehicle: Klucel (hydroxypropylcellulose) (HPC)
[17] = dose: 25.0 mg/kg/injection, schedule: Q01DX005 (ip), vehicle: Klucel (hydroxypropylcellulose) (HPC)
[18] = dose: 50.0 mg/kg/injection, schedule: Q01DX005 (ip), vehicle: saline with Tween-80
[19] = dose: 100.0 mg/kg/injection, schedule: Q01DX005 (ip), vehicle: saline with Tween-80
[20] = dose: 200.0 mg/kg/injection, schedule: Q01DX005 (ip), vehicle: saline with Tween-80

COc1cc(/C=N/O)c(SC)cc1OC was tested, and the T/C [1] was 110 % of control and the T/C [2] was 111 % of control.

In the case of CN(C)C1(c2ccc3ccccc3c2)CS(=O)(=O)C1, the T/C (dose: 100.0 mg/kg/injection, schedule: Q04DX002 (ip), vehicle: saline with Tween-80) is reported as 100 % of control, the T/C (dose: 200.0 mg/kg/injection, schedule: Q04DX002 (ip), vehicle: saline with Tween-80) is reported as 98 % of control and the T/C (dose: 400.0 mg/kg/injection, schedule: Q04DX002 (ip), vehicle: saline with Tween-80) is reported as 92 % of control.

With O=C(N=Nc1c(Cl)c(O)c2ccccc2c1O)C(=O)Nc1ccc(Cl)c([N+](=O)[O-])c1 the T/C [3] was 113 % of control and the T/C [4] was 112 % of control.

With CC(CCl)N(CCCl)Cc1cccc(Nc2ncnc3nc[nH]c23)c1 (stereo not given) the T/C (dose: 0.13 mg/kg/injection, schedule: Q01DX009 (ip), vehicle: saline) was 118 % of control, the T/C (dose: 0.15 mg/kg/injection, schedule: Q04DX003 (ip), vehicle: saline) was 104 % of control and the T/C (dose: 0.22 mg/kg/injection, schedule: Q04DX003 (ip), vehicle: saline) was 109 % of control. For the same molecule, the T/C (dose: 0.33 mg/kg/injection, schedule: Q04DX003 (ip), vehicle: saline) was 118 % of control, the T/C (dose: 1.3 mg/kg/injection, schedule: Q01DX009 (ip), vehicle: saline sonified) was 154 % of control and the T/C (dose: 2.0 mg/kg/injection, schedule: Q01DX009 (ip), vehicle: saline sonified) was 181 % of control. The T/C (dose: 3.0 mg/kg/injection, schedule: Q01DX009 (ip), vehicle: saline sonified) was 172 % of control.

With Cc1ccccc1NC(CCl)=NC(C)(C)C the T/C [5] was 98 % of control, the T/C [6] was 107 % of control and the T/C [7] was 104 % of control.

For O=C1C=CN(C2OC(CO)C(O)C2O)C(=O)C1 (stereo not given), the T/C (dose: 11.0 mg/kg/injection, schedule: Q01DX009 (ip), vehicle: saline) was 117 % of control, the T/C (dose: 16.0 mg/kg/injection, schedule: Q01DX009 (ip), vehicle: saline) was 122 % of control and the T/C (dose: 22.0 mg/kg/injection, schedule: Q01DX009 (ip), vehicle: saline) was 120 % of control and 122 % of control and 124 % of control. The T/C (dose: 33.0 mg/kg/injection, schedule: Q01DX009 (ip), vehicle: saline) was 109 % of control and 119 % of control and 120 % of control and the T/C (dose: 50.0 mg/kg/injection, schedule: Q01DX009 (ip), vehicle: saline) was 118 % of control and 124 % of control.

In the case of ONC1=Nc2ccccc2OCCOc2ccccc2N=C1NO, the T/C [8] is reported as 100 % of control, the T/C [9] is reported as 100 % of control and the T/C [10] is reported as 96 % of control.

For CCCC(=O)C(=O)c1ccc(O)c(C)c1O, the T/C [3] was 101 % of control, the T/C [4] was 99 % of control and the T/C [11] was 102 % of control.

In the case of Cc1ccc(C(=O)C[n+]2ccccc2)c(O)c1, the T/C [12] is reported as 98 % of control and the T/C [13] is reported as 100 % of control.

For CN(N)c1nnnn1-c1ccccc1, the T/C [14] was 104 % of control, the T/C [15] was 117 % of control and the T/C [16] was 113 % of control.

In the case of CC1(C)COC(c2ccccc2-c2ccccc2C2OCC(C)(C)CO2)OC1, the T/C (dose: 100.0 mg/kg/injection, schedule: Q04DX003 (ip), vehicle: saline) is reported as 100 % of control, the T/C (dose: 200.0 mg/kg/injection, schedule: Q04DX003 (ip), vehicle: saline) is reported as 99 % of control and the T/C (dose: 400.0 mg/kg/injection, schedule: Q04DX003 (ip), vehicle: saline) is reported as 104 % of control.

For CC(C)(C)C(=O)C=C(C(F)(F)F)C(F)(F)F, the T/C (dose: 6.25 mg/kg/injection, schedule: Q01DX009 (ip), vehicle: saline) was 91 % of control, the T/C (dose: 12.5 mg/kg/injection, schedule: Q01DX009 (ip), vehicle: saline) was 86 % of control and the T/C (dose: 25.0 mg/kg/injection, schedule: Q01DX009 (ip), vehicle: saline) was 113 % of control.

For O=C1CSC(c2c(F)cccc2Cl)N1c1cnccn1 (stereo not given), the T/C [17] was 99 % of control, the T/C [8] was 102 % of control and the T/C [9] was 101 % of control. For the same molecule, the T/C [10] was 106 % of control.

With O=C(c1ccccc1)C1(Cl)CCCCC1 the T/C (dose: 25.0 mg/kg/injection, schedule: Q01DX009 (ip), vehicle: saline + alcohol) was 99 % of control, the T/C (dose: 50.0 mg/kg/injection, schedule: Q01DX009 (ip), vehicle: saline + Tween-80 + alcohol) was 108 % of control and the T/C (dose: 50.0 mg/kg/injection, schedule: Q01DX009 (ip), vehicle: saline + alcohol) was 91 % of control. For the same molecule, the T/C (dose: 100.0 mg/kg/injection, schedule: Q01DX009 (ip), vehicle: saline + Tween-80 + alcohol) was 104 % of control, the T/C (dose: 100.0 mg/kg/injection, schedule: Q01DX009 (ip), vehicle: saline + alcohol) was 100 % of control and the T/C (dose: 200.0 mg/kg/injection, schedule: Q01DX009 (ip), vehicle: saline + Tween-80 + alcohol) was 99 % of control. The T/C (dose: 200.0 mg/kg/injection, schedule: Q01DX009 (ip), vehicle: saline + alcohol) was 92 % of control and the T/C (dose: 400.0 mg/kg/injection, schedule: Q01DX009 (ip), vehicle: saline + Tween-80 + alcohol) was 112 % of control.

CCSC(SCC)C(NC(C)=O)C(OC(C)=O)C(OC(C)=O)C(COC(C)=O)OC(C)=O (stereo not given) was tested, and the T/C (dose: 12.5 mg/kg/injection, schedule: Q01DX009 (ip), vehicle: other) was 107 % of control, the T/C (dose: 25.0 mg/kg/injection, schedule: Q01DX009 (ip), vehicle: other) was 107 % of control and the T/C (dose: 50.0 mg/kg/injection, schedule: Q01DX009 (ip), vehicle: other) was 95 % of control. The T/C (dose: 100.0 mg/kg/injection, schedule: Q01DX009 (ip), vehicle: other) was 107 % of control and the T/C (dose: 200.0 mg/kg/injection, schedule: Q01DX009 (ip), vehicle: other) was 98 % of control.

In the case of O=C1CCCC2c3[nH]c4ccccc4c3CCN12 (stereo not given), the T/C [1] is reported as 97 % of control, the T/C [2] is reported as 100 % of control and the T/C (dose: 400.0 mg/kg/injection, schedule: Q04DX002 (ip), vehicle: Klucel (hydroxypropylcellulose) (HPC)) is reported as 96 % of control.

In the case of CCC(/C=C/c1ccccc1)=N\Nc1ccc(Cl)c(Cl)c1, the T/C [18] is reported as 104 % of control, the T/C [19] is reported as 96 % of control and the T/C [20] is reported as 91 % of control.

In the case of O=C1N(C2CCCCC2)C(/C=C/c2ccccc2)C1(c1ccccc1)c1ccccc1 (stereo not given), the T/C [17] is reported as 96 % of control, the T/C [8] is reported as 94 % of control and the T/C [9] is reported as 88 % of control. The T/C [10] was 89 % of control and 91 % of control.

O=C(/C=C/C(=O)Oc1cc(Cl)c(Cl)cc1Cl)Oc1cc(Cl)c(Cl)cc1Cl was tested, and the T/C [5] was 96 % of control, the T/C [6] was 88 % of control and the T/C [7] was 97 % of control.

With COC1=CC(=O)C(C2OC(=O)C(Cl)=C2Cl)=CC1=O (stereo not given) the T/C [18] was 114 % of control and the T/C [19] was 119 % of control.

In the case of Cn1c(N2CCN(CCO)CC2)nc2c1c(=O)n(CC(O)CN1CCN(CCO)CC1)c(=O)n2C (stereo not given), the T/C [14] is reported as 89 % of control, the T/C [15] is reported as 97 % of control and the T/C [16] is reported as 107 % of control.

O=C1C=C(Nc2ccccn2)C(=O)C=C1Nc1ccccn1 was tested, and the T/C [18] was 107 % of control, the T/C [19] was 107 % of control and the T/C [20] was 105 % of control.

In the case of CCOC(=O)C1=NN(c2ccccc2)C(=O)C1c1ccccc1 (stereo not given), the T/C [3] is reported as 90 % of control, the T/C [4] is reported as 93 % of control and the T/C [11] is reported as 107 % of control.

For CC1(/C=C/c2ccccc2)OCCO1, the T/C [3] was 99 % of control, the T/C [4] was 98 % of control and the T/C [11] was 102 % of control.

With CCCCCOCc1cc(C)no1 the T/C [12] was 104 % of control, the T/C [13] was 109 % of control and the T/C (dose: 240.0 mg/kg/injection, schedule: Q01DX005 (ip), vehicle: saline with Tween-80) was 104 % of control.

For CC(C(=O)c1ccc(O)cc1)C1(O)C(=O)Nc2ccccc21 (stereo not given), the T/C [18] was 98 % of control, the T/C [19] was 100 % of control and the T/C [20] was 101 % of control.

With CCN(CC)CCCC(C)Nc1cc(OC)c2nc(C)ccc2c1OC (stereo not given) the T/C (dose: 0.78 mg/kg/injection, schedule: Q01DX009 (ip), vehicle: saline) was 97 % of control, the T/C (dose: 1.56 mg/kg/injection, schedule: Q01DX009 (ip), vehicle: saline) was 100 % of control and the T/C (dose: 3.12 mg/kg/injection, schedule: Q01DX009 (ip), vehicle: saline) was 99 % of control and 97 % of control.

For c1ccc(CNCc2ccccc2)cc1, the T/C (dose: 50.0 mg/kg/injection, schedule: Q04DX003 (ip), vehicle: Klucel (hydroxypropylcellulose) (HPC)) was 95 % of control, the T/C (dose: 100.0 mg/kg/injection, schedule: Q04DX003 (ip), vehicle: Klucel (hydroxypropylcellulose) (HPC)) was 95 % of control and the T/C (dose: 200.0 mg/kg/injection, schedule: Q04DX003 (ip), vehicle: Klucel (hydroxypropylcellulose) (HPC)) was 100 % of control.
